The text below walks through data of US9108983B2, “Pyrrole compounds, a process for their preparation and pharmaceutical compositions containing them” (LES LABORATOIRES SERVIER, priority 2013, dated 2015).

For assay [1], the system named is RS4;11 leukaemia tumour line. The experiment in a line: In vitro cytotoxicity (Microculture Tetrazolium Assay). Format: cell-based. The settings on record: Homo sapiens, RS4-11, 48 h, RS4;11 cells, exposed for 48 hours, cell viability; read-out: IC50 (nM) MTT RS4;11. The protocol: The cytotoxicity studies were carried out on the RS4;11 leukaemia tumour line.
The cells are distributed onto microplates and exposed to the test compounds for 48 hours.
The cell viability is then quantified by a colorimetric assay, the Microculture Tetrazolium Assay (Cancer Res., 1987, 47, 939-942).

The subject of assay [2] is cleaved (activated) form of caspase 3 in RS4;11 leukaemia cell xenograft tumours. The experiment in a line: Quantification of the cleaved form of caspase 3 in vivo (MSD ELISA). On the set-up: species or system mice (SCID strain). The following applies: Mus musculus, cleaved caspase 3 MSD test, oral route, tumour removed after 2 hours, read-out: Activation factor ± SEM (versus control). As for the experimental part:
The ability of the compounds of the invention to activate caspase 3 is evaluated in a xenograft model of RS4;11 leukaemia cells.
1×10^7 RS4;11 cells are grafted sub-cutaneously into immunosuppressed mice (SCID strain). 25 to 30 days after the graft, the animals are treated orally with the various compounds. After treatment, the tumour masses are recovered and lysed, and the cleaved (activated) form of caspase 3 is quantified in the tumour lysates.
The quantification is carried out using the “Meso Scale Discovery (MSD) ELISA platform” test, which specifically assays the cleaved form of caspase 3. It is expressed in the form of an activation factor corresponding to the ratio between the quantity of cleaved caspase 3 in the treated mice divided by the quantity of cleaved caspase 3 in the control mice.
(In general: An ELISA detects its analyte on a solid surface through an enzyme-linked reagent.)

Assay [3] addresses Bcl-2 protein (histag-Bcl-2, UniProtKB P10415) (Homo sapiens (Human), UniProt P10415). Kind of assay: Inhibition of Bcl-2 by the fluorescence polarisation technique. Format: binding. The settings on record: incubation for 2 hours, read-out: IC50 (nM) Bcl-2 FP. The procedure, abridged:
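In pH 7.4 buffer (Hepes 10 mM, NaCl 150 mM, Tween20 0.05%), test compounds at increasing concentrations competed with a fluorescein peptide (1.00×10^−8 M final) for histag-Bcl-2 (2.50×10^−8 M final). Readout was fluorescence polarisation after a 2 h incubation.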

Where a name gives a salt, the structure may show the parent alone.

Bcl-2 protein, sequence (P10415 whole entry): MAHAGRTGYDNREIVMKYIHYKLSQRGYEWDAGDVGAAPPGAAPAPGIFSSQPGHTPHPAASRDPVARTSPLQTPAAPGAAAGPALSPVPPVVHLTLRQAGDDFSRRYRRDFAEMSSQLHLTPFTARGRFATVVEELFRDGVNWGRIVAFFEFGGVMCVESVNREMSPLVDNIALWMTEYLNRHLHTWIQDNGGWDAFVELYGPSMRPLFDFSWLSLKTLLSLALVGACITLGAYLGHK

The IC50 is the concentration that gives 50% inhibition. With `Cc1c(C(=O)N(c2ccc(O)cc2)c2cnn(C)c2)cc(-c2cc(Cl)ccc2C(=O)N2Cc3ccccc3C[C@H]2CN2CCOCC2)n1C` [Example 25, 5-(5-Chloro-2-{[(3S)-3-(morpholin-4-ylmethyl)-3,4-dihydroisoquinolin-2(1H)-yl]carbonyl}phenyl)-N-(4-hydroxyphenyl)-1,2-dimethyl-N-(1-methyl-1H-pyrazol-4-yl)-1H-pyrrole-3-carboxamide hydrochloride], the values for the IC50 in assay [1] and in assay [3] were 33.3 nM and 4 nM, respectively. Further, in assay [2], the fold induction at 25 mg/kg worked out at 45.7 ± 2.
Take `Cc1c(C(=O)N(c2ccc(O)cc2)c2cnn(C)c2)cc(-c2cc3c(cc2C(=O)N2Cc4ccccc4C[C@H]2CN2CCOCC2)OCO3)n1C` [Example 47, N-(4-Hydroxyphenyl)-1,2-dimethyl-N-(1-methyl-1H-pyrazol-4-yl)-5-(6-{[(3S)-3-(morpholin-4-ylmethyl)-3,4-dihydroisoquinolin-2(1H)-yl]carbonyl}-1,3-benzodioxol-5-yl)-1H-pyrrole-3-carboxamide hydrochloride]: the IC50 in assay [1] came out at 44.5 nM; in assay [3] it was 5.9 nM. Moreover, the fold induction at 25 mg/kg in assay [2] amounted to 12.3 ± 2.4.
Turning to `Cc1c(C(=O)N(c2ccc(O)cc2)c2cnc3c(ccn3C)c2)cc(-c2cc(Cl)ccc2C(=O)N2Cc3ccccc3C[C@H]2CN2CCOCC2)n1C` [Example 71, 5-(5-Chloro-2-{[(3S)-3-(morpholin-4-ylmethyl)-3,4-dihydroisoquinolin-2(1H)-yl]carbonyl}phenyl)-N-(4-hydroxyphenyl)-1,2-dimethyl-N-(1-methyl-1H-pyrrolo[2,3-b]pyridin-5-yl)-1H-pyrrole-3-carboxamide hydrochloride], the IC50 was 12.9 nM in assay [1] and 6.1 nM in assay [3]. In assay [2], the fold induction at 25 mg/kg was determined as 46.8 ± 16.1.
The corresponding values for `Cc1c(C(=O)N(c2ccc(O)cc2)c2cc(C#N)n(C)c2)cc(-c2cc(F)ccc2C(=O)N2Cc3ccccc3C[C@H]2CN2CCOCC2)n1C` [Example 230, N-(5-Cyano-1-methyl-1H-pyrrol-3-yl)-5-(5-fluoro-2-{[(3S)-3-(morpholin-4-ylmethyl)-3,4-dihydroisoquinolin-2(1H)-yl]carbonyl}phenyl)-N-(4-hydroxyphenyl)-1,2-dimethyl-1H-pyrrole-3-carboxamide hydrochloride] are 18.3 nM, 5.1 nM and 42.2 ± 9.3.
In the case of `Cc1c(C(=O)N(c2ccc(O)cc2)c2cnc3c(c2)CCN3C)cc(-c2cc(Cl)ccc2C(=O)N2Cc3ccccc3C[C@H]2CN2CCOCC2)n1C` [Example 388, 5-(5-Chloro-2-{[(3S)-3-(morpholin-4-ylmethyl)-3,4-dihydroisoquinolin-2(1H)-yl]carbonyl}phenyl)-N-(4-hydroxyphenyl)-1,2-dimethyl-N-(1-methyl-2,3-dihydro-1H-pyrrolo[2,3-b]pyridin-5-yl)-1H-pyrrole-3-carboxamide dihydrochloride], the IC50 in assay [1] was determined as 16.5 nM; in assay [3], 3.6 nM. Further, the fold induction at 25 mg/kg in assay [2] came to 85.7 ± 3.7.
As for `Cc1c(C(=O)N(c2ccccc2)c2ccc(O)cc2)cc(-c2cc(Cl)ccc2C(=O)N2CCc3ccccc3C2)n1C` [Example 467, 5-(5-Chloro-2-{[3,4-dihydroisoquinolin-2(1H)-yl]carbonyl}phenyl)-N-(4-hydroxyphenyl)-1,2-dimethyl-N-phenyl-1H-pyrrole-3-carboxamide], the figures for the IC50 in assay [1] and in assay [3] were 188 nM and 19.2 nM, respectively.
